System: HeLa and/or SH-SY5Y cells
Assay: Autophagic flux, RFP-EGFP-LC3 assay (fluorescent analysis, FIG. 1)
Type: cell-based
Conditions: compared to the growth media control
Description: Autophagic flux refers to a measure of autophagic degradation activity. FIG. 1 depicts the fluorescent analysis of the autophagic flux in the presence of 6-bromoindirubin oxime (6-BIO), 6-MIO, and compounds of Formula I—compounds ‘a’ and ‘m’. FIG. 1 depicts that both autophagosomes and autolysosomes are increased with the compounds of Formula I when compared to the growth media control.
The assays were essentially performed as follows: RFP-EGFP-LC3 assay: sub-confluent HeLa and/or SH-SY5Y cells were seeded into 60 mm cell culture dishes, then transfected with ptf LC3 construct and/or siRNA and allowed to express for 48 h. Cells were trypsinized, seeded again on poly-D-lysine coated cover slips in a 12 or 24 well plates and allowed to attach. After appropriate treatments, the coverslips containing cells were processed for imaging. For immunofluorescent antibody staining, the cover slips were incubated in primary antibody at 4° C. for overnight followed by secondary antibody incubation at room temperature. For imaging the mammalian cells, after appropriate treatments, coverslips containing cells were fixed using 4% paraformaldehyde (PFA; Sigma) and then permeabilized using Triton X-100 (0.2%, HiMedia). Coverslips were mounted on slide using antifade, Vectashield mounting medium (Vector Laboratories). Images were acquired using DeltaVision Elite widefieldmicroscope (API, GE) with following filters: FITC (490/20 and 529/38), TRITC (542/27 and 594/45) and Cy5 (632/22 and 676/34). Acquired images were processed using DV softWoRX software. In this standard assay, the autophagosomes would appear as yellow whereas autolysosomes would be red as EGFP gets quenched at lysosomal acidic pH6.

| Structure (SMILES) | autolysosomes | autophagosomes |
| --- | --- | --- |
| O=C1Nc2cc(Br)ccc2/C1=C1/Nc2ccccc2/C1=N\O.[Li] [a, (2Z,3E)-6′-bromo-3-(hydroxyimino)-[2,3′-biindolinylidene]-2′-one lithium salt] | increased | increased |
| O=C1Nc2cc(Br)ccc2/C1=C1/Nc2ccccc2/C1=N\OCCO [m, (2Z,3E)-6′-bromo 3-((2-hydroxyethoxy)imino)-[2,3′-biindolinylidene]-2′-one] | increased | increased |

Reference: patent US20240228467A1, “INDIRUBIN COMPOUNDS AND METHODS THEREOF” (JAWAHARLAL NEHRU CENTRE FOR ADVANCED SCIENTIFIC RESEARCH, priority 2021, published 2024)
